# Data reported in US11331299B2, “Medicinal use of serrulatane diterpenes” (The University of Sydney, priority 2016, dated 2022).
# Read-outs that look alike come from different tables or passages of the source.
# Test system: 280 human cancer cell lines
# Assay: OncoPanel cell proliferation assay (10-day)
# Type: cell-based
# Conditions: for EC50: read-out: Cell Count EC50; for IC50: read-out: Cell Count IC50
# [1] = Homo sapiens, 22Rv1, 22Rv1, Prostate
# [2] = Homo sapiens, 786-0, 786-O, Kidney
# [3] = Homo sapiens, A7, Skin (Melanoma)
# [4] = Homo sapiens, A 172, A172, CNS - Glioma
# [5] = Homo sapiens, A253, A-253, Head and Neck
# [6] = Homo sapiens, A388, Head and Neck
# [7] = Homo sapiens, A498, A498, Kidney
# [8] = Homo sapiens, A549, A549, Lung - NSCLC
# [9] = Homo sapiens, A673, A-673, Soft Tissue - Sarcoma
# [10] = Homo sapiens, A704, A-704, Kidney
# [11] = Homo sapiens, A-375, A375, Skin (Melanoma)
# [12] = Homo sapiens, A-427, A427, Lung - NSCLC
# [13] = Homo sapiens, A-431, A431, Head and Neck
# [14] = Homo sapiens, AN3-CA, AN3 CA, Female GU - Uterus
# [15] = Homo sapiens, ARH-77, ARH-77, Myeloma
# [16] = Homo sapiens, ASPC1, AsPC-1, Pancreas
# [17] = Homo sapiens, AU565, AU565, Breast
# [18] = Homo sapiens, BCP-1, BCP-1, Lymphoma
# [19] = Homo sapiens, BE(2)-C, BE(2)C, CNS - Neuroblastoma
# [20] = Homo sapiens, BFTC-905, BFTC-905, Bladder
# [21] = Homo sapiens, BHT-101, BHT-101, Endocrine - Thyroid
# [22] = Homo sapiens, BM-1604, BM-1604, Prostate
# [23] = Homo sapiens, BPH-1, BPH1, Prostate
# [24] = Homo sapiens, BT-20, BT20, Breast
structure (smiles),measurement,setting,value
"CC(C)=CCC[C@H](CO)[C@@H]1CC[C@@H](C)c2c1cc(C)c(O)c2O [Compound 1, 7,8,18-trihydroxyserrulat-14-ene]","Number of cell types, GI Activity Potent","GI50 range 0.03-0.099 μM, of 280 cell types",0
same,"Number of cell types, GI Activity moderately potent","GI50 range 0.1-0.99 μM, of 280 cell types",23
same,"Number of cell types, GI Activity Strong","GI50 range 1-2.99 μM, of 280 cell types",149
same,"Number of cell types, GI Activity moderately strong","GI50 range 3-9.99 μM, of 280 cell types",99
same,"Number of cell types, GI Activity weak","GI50 range 10-30.00 μM, of 280 cell types",6
same,"Number of cell types, GI Activity very weak","GI50 range >30 μM, of 280 cell types",1
same,EC50,[1],4080 nM
same,GI50,"Homo sapiens, 22Rv1, 22Rv1, Prostate, read-out: Cell Count GI50",4060 nM
same,IC50,[1],4080 nM
same,GI50,"Homo sapiens, 149 cell lines with strong activity, read-out: GI50",1000 to 2980 nM
same,GI50,"Homo sapiens, 174 cell lines with very potent to strong activity, read-out: GI50",6 to 2980 nM
same,EC50,"Homo sapiens, 647-V, Bladder",3120 nM
same,GI50,"Homo sapiens, 647-V, Bladder, read-out: Cell Count GI50",3110 nM
same,IC50,"Homo sapiens, 647-V, Bladder",3120 nM
same,EC50,"Homo sapiens, 769-P, Kidney",850 nM
same,GI50,"Homo sapiens, 769-P, Kidney, read-out: Cell Count GI50",850 nM
same,IC50,"Homo sapiens, 769-P, Kidney",850 nM
same,EC50,[2],2050 nM
same,GI50,"Homo sapiens, 786-0, 786-O, Kidney, read-out: Cell Count GI50",2050 nM
same,IC50,[2],2050 nM
same,EC50,"Homo sapiens, 5637, Bladder",3380 nM
same,GI50,"Homo sapiens, 5637, Bladder, read-out: Cell Count GI50",3320 nM
same,IC50,"Homo sapiens, 5637, Bladder",3380 nM
same,EC50,[3],940 nM
same,GI50,"Homo sapiens, A7, Skin (Melanoma), read-out: Cell Count GI50",940 nM
same,IC50,[3],940 nM
same,EC50,"Homo sapiens, A101D",8420 nM
same,GI50,"Homo sapiens, A101D, read-out: Cell Count GI50",8250 nM
same,IC50,"Homo sapiens, A101D",8420 nM
same,EC50,[4],1120 nM
same,GI50,"Homo sapiens, A 172, A172, CNS - Glioma, read-out: Cell Count GI50",1140 nM
same,IC50,[4],1150 nM
same,EC50,[5],4130 nM
same,GI50,"Homo sapiens, A253, A-253, Head and Neck, read-out: Cell Count GI50",4130 nM
same,IC50,[5],4140 nM
same,EC50,[6],1660 nM
same,GI50,"Homo sapiens, A388, Head and Neck, read-out: Cell Count GI50",1660 nM
same,IC50,[6],1670 nM
same,EC50,[7],1290 nM
same,GI50,"Homo sapiens, A498, A498, Kidney, read-out: Cell Count GI50",1290 nM
same,IC50,[7],1290 nM
same,EC50,[8],1660 nM
same,GI50,"Homo sapiens, A549, A549, Lung - NSCLC, read-out: Cell Count GI50",1660 nM
same,IC50,[8],1670 nM
same,EC50,[9],1540 nM
same,GI50,"Homo sapiens, A673, A-673, Soft Tissue - Sarcoma, read-out: Cell Count GI50",1540 nM
same,IC50,[9],1550 nM
same,EC50,[10],1570 nM
same,GI50,"Homo sapiens, A704, A-704, Kidney, read-out: Cell Count GI50",1540 nM
same,IC50,[10],1600 nM
same,EC50,[11],1050 nM
same,GI50,"Homo sapiens, A-375, A375, Skin (Melanoma), read-out: Cell Count GI50",1050 nM
same,IC50,[11],1050 nM
same,EC50,[12],4520 nM
same,GI50,"Homo sapiens, A-427, A427, Lung - NSCLC, read-out: Cell Count GI50",4500 nM
same,IC50,[12],4520 nM
same,EC50,[13],2800 nM
same,GI50,"Homo sapiens, A-431, A431, Head and Neck, read-out: Cell Count GI50",2800 nM
same,IC50,[13],2810 nM
same,EC50,"Homo sapiens, ACHN, Kidney",1740 nM
same,GI50,"Homo sapiens, ACHN, Kidney, read-out: Cell Count GI50",1740 nM
same,IC50,"Homo sapiens, ACHN, Kidney",1740 nM
same,EC50,"Homo sapiens, AGS, Stomach",700 nM
same,GI50,"Homo sapiens, AGS, Stomach, read-out: Cell Count GI50",700 nM
same,IC50,"Homo sapiens, AGS, Stomach",700 nM
same,EC50,[14],1520 nM
same,GI50,"Homo sapiens, AN3-CA, AN3 CA, Female GU - Uterus, read-out: Cell Count GI50",1490 nM
same,IC50,[14],1520 nM
same,EC50,[15],1950 nM
same,GI50,"Homo sapiens, ARH-77, ARH-77, Myeloma, read-out: Cell Count GI50",1950 nM
same,IC50,[15],1970 nM
same,EC50,[16],2870 nM
same,GI50,"Homo sapiens, ASPC1, AsPC-1, Pancreas, read-out: Cell Count GI50",2840 nM
same,IC50,[16],2870 nM
same,EC50,[17],1620 nM
same,GI50,"Homo sapiens, AU565, AU565, Breast, read-out: Cell Count GI50",1610 nM
same,IC50,[17],1620 nM
same,EC50,"Homo sapiens, BC-1, Lymphoma",1520 nM
same,GI50,"Homo sapiens, BC-1, Lymphoma, read-out: Cell Count GI50",1510 nM
same,IC50,"Homo sapiens, BC-1, Lymphoma",1520 nM
same,EC50,[18],3180 nM
same,GI50,"Homo sapiens, BCP-1, BCP-1, Lymphoma, read-out: Cell Count GI50",3140 nM
same,IC50,[18],3180 nM
same,EC50,[19],4230 nM
same,GI50,"Homo sapiens, BE(2)-C, BE(2)C, CNS - Neuroblastoma, read-out: Cell Count GI50",4180 nM
same,IC50,[19],4230 nM
same,EC50,[20],1790 nM
same,GI50,"Homo sapiens, BFTC-905, BFTC-905, Bladder, read-out: Cell Count GI50",1780 nM
same,IC50,[20],1790 nM
same,EC50,[21],2160 nM
same,GI50,"Homo sapiens, BHT-101, BHT-101, Endocrine - Thyroid, read-out: Cell Count GI50",2170 nM
same,IC50,[21],2170 nM
same,EC50,[22],2580 nM
same,GI50,"Homo sapiens, BM-1604, BM-1604, Prostate, read-out: Cell Count GI50",2560 nM
same,IC50,[22],2580 nM
same,EC50,[23],5240 nM
same,GI50,"Homo sapiens, BPH-1, BPH1, Prostate, read-out: Cell Count GI50",5200 nM
same,IC50,[23],5240 nM
same,EC50,[24],1590 nM
same,GI50,"Homo sapiens, BT-20, BT20, Breast, read-out: Cell Count GI50",1530 nM
same,IC50,[24],1610 nM
